Laboratory results taken from patent US20240207282A1, “METHOD OF INCREASING CHAPERONE MEDIATED AUTOPHAGY BY STABILIZING THE INTERACTION OF RETINOIC ACID RECEPTOR-ALPHA AND AN INHIBITOR” (ALBERT EINSTEIN COLLEGE OF MEDICINE, priority 2021, published 2024).

Legend:
[1] = Bidirectional permeability assay with CaCo-2 cells; format: in vitro ADME
Method: In vitro solubility in the following conditions A) HBSS/HEPES 10 mM/BSA 0.1% pH 6 B) HBSS/HEPES 10 mM/BSA 0.1% pH 7.4 C) TRIS/BSA 0.1% PBS (pH 7.4 and at indicated doses were measured by Nephelometry using the NEPHELOstar Galaxy apparatus (BMG Lab Technologies). In vitro stability in human, mouse and rat liver microsomes and permeability using a bidirectional permeability assay with CaCo-2 cells (pH 6.5/7.4) assays were performed with standard methodology and analyzed by LC-MS/MS. at SIMM-SERVIER joint Biopharmacy Laboratory. In silico ADME properties calculated by QikProp (Schrodinger, LLC) analysis and ADME predictions for CA39 (left) and CA77 (right).

rd10 mice [2] = assay: rd10 mouse retinal degeneration, single intravitreal injection; format: in vivo
Method: (§1) Cryosections and immunofluorescence: Cryosections and immunofluorescence in retinal sections were performed as previously described 10. Primary antibodies used in this study were Transducin (Santacruz Biotechnologies) and Opsin R/G (Millipore). Sections were visualized by confocal microscopy (TCS SP5; Leica Microsystems). ONL thickness and outer segment length quantification: For ONL thickness quantification, DAPI images were taken at 40× in a fluorescence microscope Multidimensional system Leica AF6000 LX coupled to DMI600B microscope and Hamamatsu CCD 9100-02 camera. At least two sections per animal were analyzed, preferably central sections. Eight images per retina equally distributed along the retina were acquired. Three measures were taken per image and ratio ONL/INL quantified with ImageJ tools. Leica LAS-X was used for image acquisition and ImageJ (v.2.1.0) was used for image processing. For OS length measures, fixed positions common to all pictures were considered and OS length was measured using ImageJ straight line tool.

[3] = tested on: retinal explants of rd10 mice; assay: Ex vivo retinal explants of rd10 mice; design: species or system mouse; details: 10 μM, 24 h; vs contralateral untreated explant
Method: Ex-vivo retinal cultures: After removal of the eyes, all non-relevant tissue was removed from the neuroretina, which was then placed, photoreceptors upside down, in millicell support inserts (Millipore) and maintained in DMEM with 1 μM insulin (SIGMA, I2643-25 mg) for 24 h at 37° C. in a 5% CO2 atmosphere. Where indicated, retinas were incubated with 10 µM CA77 for the indicated times. The retinas were then washed twice with phosphate-buffered saline (PBS), fixed overnight in 4% paraformaldehyde (w/v) in 0.1 M phosphate buffer (pH 7.4) and processed.
Staining of whole-mount retinas: Immunostainings were performed overnight at 4° ° C. using antibodies against visual arrestin (Santacruz Biotechnologies) and Opsin R/G (Millipore) after initial permeabilization with 2% Triton X-100 for 1 h at RT and subsequent incubation with blocking solution (10% normal goat serum, 0.25% Triton X-100 in PBS). The retinas were then washed and incubated for 1 h with Alexa 568 or 647 (Invitrogen), counterstained with DAPI, mounted in Fluoromount, and visualized by confocal microscopy in a SP5 confocal microscope (TCS SP5; Leica Microsystems).

rd10 mice [4] = assay: rd10 mouse retinal degeneration, systemic (i.p.) administration; format: in vivo
Description: Animals: C57BL/6J mice wild-type (WT) and homozygous for the Pde6 mutation (rd10 mouse model of retinal degeneration) were obtained from The Jackson Laboratory. C57BL/6 KFERQ-Dendra mice were generated by back-crossing FVB KFERQ-Dendra mice with wild-type C57BL/6 mice for 8 generations. Both male and female animals were used in this study in equal distribution groups. However, results from both sexes were pooled, because of absence of significant differences in any of the parameters analyzed after statistical analysis with a mixed model of two-way ANOVA sex and treatment as independent variables and the corresponding measure as dependent variable. All animals were housed in a barrier-controlled facility (19-23° C. 30-60% relative humidity; 12-h light/dark cycle) with ad libitum access to standard chow pellets and water. For animal administration of CA compounds, a formula containing 30% PEG 400, 65% glucose solution (5%), 5% Tween 80 was used to dissolve them. CA compounds were prepared freshly by adding 5% DMSO and sonicating for 1 h. Treatment of KFERQ-Dendra mice with the CA compounds was done by i.p. daily injection of 30 mg/kg bw or vehicle for three consecutive days and tissues collected 6 h after the last injection. In the case of rd10 mice, animals were daily injected from P18 to P25 with CA77 (40 mg/kg bw). At P26, mice were sacrificed, and eyes fixed overnight with 4% PFA in PBS at 4° C. for immunofluorescence or retinas dissected and immediately frozen for biochemistry. Distribution of animals in the vehicle or treatment group was done randomly. All animal studies and procedures complied with ethical regulations, were performed in accordance with the European Union guidelines and the ARVO Statement for the Use of Animals in Ophthalmic and Vision Research and were approved by the Institutional Animal Care and Use Committee at the Albert Einstein College of Medicine, the CSIC Bioetica Comite and approved by the Comunidad de Madrid, PROEX232/17.
Cryosections and immunofluorescence: Cryosections and immunofluorescence in retinal sections were performed as previously described 10. Primary antibodies used in this study were Transducin (Santacruz Biotechnologies) and Opsin R/G (Millipore). Sections were visualized by confocal microscopy (TCS SP5; Leica Microsystems).
as §1, with “ONL” for “Cryosections and immunofluorescence: Cryosections and immunofluorescence in retinal sections were performed as previously described 10. Primary antibodies used in this study were Transducin (Santacruz Biotechnologies) and Opsin R/G (Millipore). Sections were visualized by confocal microscopy (TCS SP5; Leica Microsystems). ONL”
Mice were dark adapted overnight, and subsequent manipulations were performed in dim red light. Mice were anesthetized with intraperitoneal injections of ketamine (95 mg/kg) and xylazine (5 mg/kg) solution and maintained on a heating pad at 37° C. Pupils were dilated with a drop of 1% tropicamide (Colircusi Tropicamida; Alcon Cusi). To optimize electrical recording, a topical drop (2% Methocel; Hetlingen) was instilled on each eye immediately before situating the corneal electrode. Flash-induced ERG responses were recorded from the right eye in response to light stimuli produced with a Ganzfeld stimulator. Light intensity was measured with a photometer at the level of the eye (Mavo Monitor USB; Nürenberg). Four to 64 consecutive stimuli were averaged with an interval between light flashes in scotopic conditions of 10 s for dim flashes and of up to 60 s for the highest intensity. Under photopic conditions, the interval between light flashes was fixed at 1 s. […]

[5] = daily i.p. 40 mg/kg bw, p18 to p25

For `CC(=O)Nc1ccc(C2=Nc3ccc(Cl)cc3OC2)cc1` [CA77], which membrane permeability [1] is on record?
Its membrane permeability is “highly membrane permeable”.

And the vision (rd10 mice [2]; 7 days after single intravitreal injection)?
The vision was “preserved vision”.

What about the “retinal ONL/INL ratio, OS and ONL preservation” value (rd10 mice [2]; 7 days after single intravitreal injection (40 μM) at P18) of the same compound?
The value was “thicker retinal ONL/INL ratio and better OS and ONL preservation”.

What about the gliosis (rd10 mice [2]; single intravitreal injection (40 μM) at P18) of the same compound?
The gliosis was “significantly improved”.

And the “cones (opsin-positive)” value [3]?
Its value is “higher preservation also for cones”.

What about the “number of rods (rod arrestin-positive)” value [3] of the same compound?
The value was “significant preservation of the number of rods”.

What about the electroretinogram wave amplitude (rd10 mice [4]; ERG at P33) of the same compound?
The electroretinogram wave amplitude was “significantly higher amplitude of their b-mixed, b-phot and flicker waves”.

And the “other light responses (ERG)” value (rd10 mice [4]; ERG at P33)?
The value was “No significant differences”.

What about the NCoR1 expression levels (rd10 mice [4]; WT and rd10 mice, daily i.p. 40 mg/kg bw) of the same compound?
Its NCoR1 expression levels is “did not change the expression levels of NCoR1”.

What about the “mRNA levels of photoreceptor-specific proteins (rhodopsin)” value (rd10 mice [4]; [5]) of the same compound?
The value was “Higher mRNA levels of photoreceptor-specific proteins”.

And the “outer nuclear layer (ONL) thickness” value (rd10 mice [4]; [5])?
Its value is “significantly thicker outer nuclear layers”.

What about the “retinal GFAP levels” value (rd10 mice [4]; [5]) of the same compound?
Its value is “strikingly lower levels of GFAP”.

What about the “retinal L2A levels (immunoblot)” value (rd10 mice [4]; [5]) of the same compound?
The value was “significantly increasing retinal levels of the limiting CMA component”.

What about the “length of outer segments of photoreceptors” value (rd10 mice [4]; daily i.p. 40 mg/kg bw, p18 to p25, vs vehicle) of the same compound?
Its value is “increased length of the outer segments of photoreceptors”.
